Measured values reported in patent US20150133547A1, “METHOD AND COMPOSITION FOR TREATING GLAUCOMA” (priority 2013, published 2015).

Key:
Humans = details: handling of pure or concentrated lambda-cyhalothrin; cited from earlier work
rats = details: cited from earlier work
[1] = cited from earlier work
[2] = cited from earlier work; remark: listed apart in the source
guinea pigs = details: cited from earlier work
canine subjects [3] = assay: Intraocular pressure (IOP) in canine subjects after topical LC drops, iCARE rebound tonometer; format: in vivo
Protocol: Preparations: The desired composition was DMSO 4.0%, PG 3.0% and LC 10 mg/ml (1% (by weight)), based upon the total composition.
A vehicle was prepared for use as a subsequent dilution (serial dilutions of the initial LC strength), by mixing 4.65 ml of BSS, 0.2 ml of DMSO, and 0.15 ml of PG, to yield a diluent vehicle comprising 4.0% DMSO and 3.0% PG, based upon the total composition. A total of 5 ml was prepared.
Methodology: Inventive compositions were prepared by simple mixing.
IOP was determined using an iCARE® rebound tonometer. Other commercially available IOP measuring devices (tonometers) may also be used.
Progressive dilutions of the composition set forth in Table 1 are shown in Table 2, below, starting with the original 2.5 ml volume preparation of Table 1. These subsequent dilutions were used in the canine experiments set forth below.
The experiments were conducted on canine subjects. Canine subjects have IOP's that are the same (˜10-20 mm/Hg) as that of a human subject. Canines and humans share a common susceptibility gene, SRBD1, for glaucoma risk. Consequently, canines are excellent surrogates to assess the results of the use of the inventive compositions on humans. The results of the experiments are set forth in Table 3, below, reflecting the concentration range of LC used as 0.002% to 0.100% (by weight).
Additional efficacy and safety experiments were conducted using an LC concentration of 0.600% (by weight) in the same animal model. This additional data confirms in two animals the safety and efficacy of topical LC in reducing intraocular pressure.
A series of experiments was run in the same canine model, using LC concentrations, prepared as above, and ranging from 0.200% to 0.700% (by weight).

[4] = cited from earlier work; remark: listed apart in the source
rabbits = details: cited from earlier work
canine subjects [5] = assay: Adverse events in canine subjects after topical LC (daily ophthalmic examinations, toxicology studies of blood)
[6] = Example 2, canine, topical LC 0.600%, Day 1, drop 9:30, IOP at 9:55
[7] = Example 2, canine, topical LC 0.600%, Day 1, drop 12:00, IOP at 12:30
[8] = Example 2, canine, topical LC 0.600%, Day 3, drop 9:45, IOP at 10:15
[9] = Example 2, canine, topical LC 0.600%, Day 3, drop 12:10, IOP at 12:40
[10] = Example 3, canine, topical LC 0.200%, Day 2, drop 7:40, IOP at 8:45
[11] = Example 3, canine, topical LC 0.300%, Day 3, drop 7:25, IOP at 7:25
[12] = Example 3, canine, topical LC 0.300%, Day 3, drop 12:25, IOP at 13:50
[13] = Example 3, canine, topical LC 0.300%, Day 3, drop 17:40, IOP at 17:30
[14] = Example 3, canine, topical LC 0.400%, Day 4, drop 7:25, IOP at 7:20
[15] = Example 3, canine, topical LC 0.400%, Day 4, drop 12:40, IOP at 12:35
[16] = Example 3, canine, topical LC 0.400%, Day 4, drop 17:25, IOP at 17:20
[17] = Example 3, canine, topical LC 0.500%, Day 5, drop 7:30, IOP at 7:20
[18] = Example 3, canine, topical LC 0.500%, Day 5, drop 12:40, IOP at 12:35
[19] = Example 3, canine, topical LC 0.600%, Day 8, drop 7:30, IOP at 7:00
[20] = Example 3, canine, topical LC 0.600%, Day 8, drop 12:05, IOP at 12:00
[21] = Example 3, canine, topical LC 0.600%, Day 8, drop 17:00, IOP at 16:30
[22] = Example 3, canine, topical LC 0.700%, Day 9, drop 7:05, IOP at 7:00
[23] = Example 3, canine, topical LC 0.700%, Day 9, drop 12:25, IOP at 12:20
[24] = Example 3, canine, topical LC 0.700%, Day 9, drop 17:05, IOP at 17:00
[25] = canine, topical LC 0.002%, Day 4, drop 8:30, IOP at 9:50
[26] = canine, topical LC 0.002%, Day 5, drop 9:00, IOP at 9:50
[27] = canine, topical LC 0.002%, Day 5, drop 14:30, IOP at 15:00
[28] = canine, topical LC 0.020%, Day 7, drop 9:00, IOP at 9:30
[29] = canine, topical LC 0.020%, Day 7, drop 15:00, IOP at 16:00
[30] = canine, topical LC 0.050%, Day 9, drop 9:00, IOP at 9:30
[31] = canine, topical LC 0.050%, Day 9, drop 15:00, IOP at 16:00
[32] = canine, topical LC 0.100%, Day 11, drop 9:00, IOP at 9:42
[33] = canine, topical LC 0.100%, Day 11, drop 15:00, IOP at 15:22

SMILES: CC1(C)C(/C=C(\Cl)C(F)(F)F)C1C(=O)OC(C#N)c1cccc(Oc2ccccc2)c1 [LC, (R)-cyano(3-phenoxyphenyl) methyl (1S,3S)-rel-3-[(1Z)-2-chloro-3,3,3-trifluoro-1-propenyl]-2,2-dimethyl cyclopropane carboxylate]
- onset of symptoms after exposure (Humans): ≤ 30 min
- symptoms reported on exposure (Humans): facial tingling and burning
- EPA toxicity class, skin effects for rats (rats): moderately toxic
- EPA toxicity class, eye effects [1]: moderately toxic
- EPA toxicity class when inhaled [2]: moderately toxic
- skin sensitivity in guinea pigs (guinea pigs): no skin sensitivity
- reduction in intraocular pressure after topical administration (canine subjects [3]; Example 1, canine, 0.002% to 0.100% (by weight), dose related): significant reduction
- IOP OD (canine subjects [3]; [6]): 8
- IOP OS (canine subjects [3]; [6]): 7
- IOP OD (canine subjects [3]; [7]): 8
- IOP OS (canine subjects [3]; [7]): 8
- IOP OD (canine subjects [3]; [8]): 6
- IOP OS (canine subjects [3]; [8]): 7
- IOP OD (canine subjects [3]; [9]): 7
- IOP OS (canine subjects [3]; [9]): 7
- IOP OD (canine subjects [3]; [10]): 8
- IOP OS (canine subjects [3]; [10]): 7
- IOP OD (canine subjects [3]; [11]): 13
- IOP OS (canine subjects [3]; [11]): 10
- IOP OD (canine subjects [3]; [12]): 6
- IOP OS (canine subjects [3]; [12]): 7
- IOP OD (canine subjects [3]; [13]): 9
- IOP OS (canine subjects [3]; [13]): 8
- IOP OD (canine subjects [3]; [14]): 12
- IOP OS (canine subjects [3]; [14]): 11
- IOP OD (canine subjects [3]; [15]): 7
- IOP OS (canine subjects [3]; [15]): 7
- IOP OD (canine subjects [3]; [16]): 7
- IOP OS (canine subjects [3]; [16]): 7
- IOP OD (canine subjects [3]; [17]): 9
- IOP OS (canine subjects [3]; [17]): 10
- IOP OD (canine subjects [3]; [18]): 7
- IOP OS (canine subjects [3]; [18]): 7
- IOP OD (canine subjects [3]; [19]): 7
- IOP OS (canine subjects [3]; [19]): 7
- IOP OD (canine subjects [3]; [20]): 6
- IOP OS (canine subjects [3]; [20]): 6
- IOP OD (canine subjects [3]; [21]): 7
- IOP OS (canine subjects [3]; [21]): 8
- IOP OD (canine subjects [3]; [22]): 8
- IOP OS (canine subjects [3]; [22]): 7
- IOP OD (canine subjects [3]; [23]): 7
- IOP OS (canine subjects [3]; [23]): 7
- IOP OD (canine subjects [3]; [24]): 6
- IOP OS (canine subjects [3]; [24]): 5
- persistence of the reduction of intra-ocular pressure (canine subjects [3]; after exposure): hours to days
- reduction of IOP (canine subjects [3]; canine, dosages ranging from 0.002% to 0.700% LC (by weight), overall): 35-40%
- IOP OD (intraocular pressure right eye) (canine subjects [3]; [25]): 8
- IOP OS (intraocular pressure left eye) (canine subjects [3]; [25]): 8
- IOP OD (intraocular pressure right eye) (canine subjects [3]; [26]): 8
- IOP OS (intraocular pressure left eye) (canine subjects [3]; [26]): 8
- IOP OD (intraocular pressure right eye) (canine subjects [3]; [27]): 8
- IOP OS (intraocular pressure left eye) (canine subjects [3]; [27]): 9
- IOP OD (intraocular pressure right eye) (canine subjects [3]; [28]): 10
- IOP OS (intraocular pressure left eye) (canine subjects [3]; [28]): 9
- IOP OD (intraocular pressure right eye) (canine subjects [3]; [29]): 10
- IOP OS (intraocular pressure left eye) (canine subjects [3]; [29]): 7
- IOP OD (intraocular pressure right eye) (canine subjects [3]; [30]): 11
- IOP OS (intraocular pressure left eye) (canine subjects [3]; [30]): 11
- IOP OD (intraocular pressure right eye) (canine subjects [3]; [31]): 7
- IOP OS (intraocular pressure left eye) (canine subjects [3]; [31]): 8
- IOP OD (intraocular pressure right eye) (canine subjects [3]; [32]): 9
- IOP OS (intraocular pressure left eye) (canine subjects [3]; [32]): 10
- IOP OD (intraocular pressure right eye) (canine subjects [3]; [33]): 11
- IOP OS (intraocular pressure left eye) (canine subjects [3]; [33]): 5
- water solubility [4]: low
- toxicity in skin effects for rabbits (rabbits): low toxicity
- local or systemic adverse events (canine subjects [5]; Example 1, daily complete ophthalmic examinations and toxicology studies of blood): no local or systemic adverse events
- AE (canine subjects [5]; Example 2, topical LC 0.600%, Day 1, drop 9:30): 0
- AE (canine subjects [5]; Example 2, topical LC 0.600%, Day 1, drop 12:00): 0
- AE (canine subjects [5]; Example 2, topical LC 0.600%, Day 3, drop 9:45): 0
- AE (canine subjects [5]; Example 2, topical LC 0.600%, Day 3, drop 12:10): 0
- AE (canine subjects [5]; Example 3, topical LC 0.200%, Day 2, drop 7:40): 0
- AE (canine subjects [5]; Example 3, topical LC 0.200%, Day 2, drop 12:22): 0
- AE (canine subjects [5]; Example 3, topical LC 0.200%, Day 2, drop 17:05): 0
- AE (canine subjects [5]; Example 3, topical LC 0.300%, Day 3, drop 7:25): 0
- AE (canine subjects [5]; Example 3, topical LC 0.300%, Day 3, drop 12:25): 0
- AE (canine subjects [5]; Example 3, topical LC 0.300%, Day 3, drop 17:40): 0
- AE (canine subjects [5]; Example 3, topical LC 0.400%, Day 4, drop 7:25): 0
- AE (canine subjects [5]; Example 3, topical LC 0.400%, Day 4, drop 12:40): 0
- AE (canine subjects [5]; Example 3, topical LC 0.400%, Day 4, drop 17:25): 0
- AE (canine subjects [5]; Example 3, topical LC 0.500%, Day 5, drop 7:30): 0
- AE (canine subjects [5]; Example 3, topical LC 0.500%, Day 5, drop 12:40): 0
- AE (canine subjects [5]; Example 3, topical LC 0.600%, Day 8, drop 7:30): 0
- AE (canine subjects [5]; Example 3, topical LC 0.600%, Day 8, drop 12:05): 0
- AE (canine subjects [5]; Example 3, topical LC 0.600%, Day 8, drop 17:00): 0
- AE (canine subjects [5]; Example 3, topical LC 0.700%, Day 9, drop 7:05): 0
- AE (canine subjects [5]; Example 3, topical LC 0.700%, Day 9, drop 12:25): 1
- AE (canine subjects [5]; Example 3, topical LC 0.700%, Day 9, drop 17:05): 1
- adverse events at doses other than 0.700% (canine subjects [5]; topical 0.002% to 0.600% LC): No adverse events
- adverse events at the 0.700% dose (canine subjects [5]; topical 0.700% LC): minimal, reversible inferior conjunctival hyperemia
- AE (adverse event) (canine subjects [5]; topical LC 0.002%, Day 4, drop 8:30): 0
- AE (adverse event) (canine subjects [5]; topical LC 0.002%, Day 5, drop 9:00): 0
- AE (adverse event) (canine subjects [5]; topical LC 0.002%, Day 5, drop 14:30): 0
- AE (adverse event) (canine subjects [5]; topical LC 0.020%, Day 7, drop 9:00): 0
- AE (adverse event) (canine subjects [5]; topical LC 0.020%, Day 7, drop 15:00): 0
- AE (adverse event) (canine subjects [5]; topical LC 0.050%, Day 9, drop 9:00): 0
- AE (adverse event) (canine subjects [5]; topical LC 0.050%, Day 9, drop 15:00): 0
- AE (adverse event) (canine subjects [5]; topical LC 0.100%, Day 11, drop 9:00): 0
- AE (adverse event) (canine subjects [5]; topical LC 0.100%, Day 11, drop 15:00): 0
